Measurements reported in ChEMBL document CHEMBL1123971, “Synthesis, platelet aggregation inhibitory activity, and in vivo antithrombotic activity of new 1,4-dihydropyridines” (J Med Chem, 1988).

Tests used:
Felis catus [1] = test: Effect of intraperitoneal infusion on systolic pressure in Anesthetized cats at a dose of 200 mg/kg at 60 min; type: functional
Felis catus [2] = test: Effect of intraperitoneal infusion on systolic pressure in Anesthetized cats at a dose of 200 mg/kg at 105 min; type: functional
Felis catus [3] = test: Effect of intraperitoneal infusion on respiration frequency in Anesthetized cats at a dose of 200 mg/kg at 60 min; type: functional
Felis catus [4] = test: Effect of intravenous infusion on respiration frequency in Anesthetized cats at a dose of 0.75 mg/kg at 5 min; type: functional
Oryctolagus cuniculus [5] = species: Oryctolagus cuniculus; test: Effect on 35 mM K+-induced contraction on rabbit aorta at a dose of 3*10e-6 mol/L; type: functional
Oryctolagus cuniculus [6] = species: Oryctolagus cuniculus; test: Effect on 35 mM K+-induced contraction on rabbit aorta at a dose of 3*10e-7 mol/L; type: functional
Felis catus [7] = test: Effect of intravenous infusion on diastolic pressure in Anesthetized cats at a dose of 0.15 mg/kg at 1 min; type: functional
Felis catus [8] = test: Effect of intraperitoneal infusion on diastolic pressure in Anesthetized cats at a dose of 200 mg/kg at 45 min; type: functional
Cavia porcellus [9] = species: Cavia porcellus; test: Chronotropic activity on left and right guinea pig artia (beats/min), at 90 min; type: functional
Felis catus [10] = test: Effect of intraperitoneal infusion on respiration frequency in Anesthetized cats at a dose of 200 mg/kg at 18 0 min; type: functional
Felis catus [11] = test: Effect of intravenous infusion on systolic pressure in Anesthetized cats at a dose of 2.25 mg/kg at 15 min; type: functional
Felis catus [12] = test: Effect of intraperitoneal infusion of compound on cardiac frequency in Anesthetized cats at a dose of 200 mg/kg at 120 min; type: functional, Heart
Felis catus [13] = test: Effect of intravenous infusion on cardiac frequency in Anesthetized cats at a dose of 0.75 mg/kg at 5 min; type: functional, Heart
Felis catus [14] = test: Effect of intraperitoneal infusion on respiration frequency in Anesthetized cats at a dose of 200 mg/kg at 105 min; type: functional
Cavia porcellus [15] = species: Cavia porcellus; test: Effect on guinea pig artia (beats/min), at the a dose of 10e-6 M; type: functional
Cavia porcellus [16] = species: Cavia porcellus; test: Chronotropic activity on left and right guinea pig artia (beats/min), at 75 min; type: functional
Felis catus [17] = test: Effect of intraperitoneal infusion on diastolic pressure in Anesthetized cats at a dose of 200 mg/kg at 75 min; type: functional
Felis catus [18] = test: Effect of intravenous infusion on diastolic pressure in Anesthetized cats at a dose of 1.50 mg/kg at 10 min; type: functional; settings: dose 1.5 mg/kg
Cavia porcellus [19] = species: Cavia porcellus; test: Chronotropic activity on left and right guinea pig artia (beats/min), at 30 min; type: functional
Felis catus [20] = test: Effect of intraperitoneal infusion of compound on cardiac frequency in Anesthetized cats at a dose of 200 mg/kg at 150 min; type: functional, Heart
Cavia porcellus [21] = species: Cavia porcellus; test: Chronotropic activity on left and right guinea pig artia (beats/min), at 120 min; type: functional
Felis catus [22] = test: Effect of intraperitoneal infusion on diastolic pressure in Anesthetized cats at a dose of 200 mg/kg at 15 min; type: functional
Felis catus [23] = test: Effect of intravenous infusion on systolic pressure in Anesthetized cats at a dose of 0.30 mg/kg at 2 min; type: functional; settings: dose 0.3 mg/kg
Oryctolagus cuniculus [24] = species: Oryctolagus cuniculus; test: Effect on 35 mM K+-induced contraction on rabbit aorta at a dose of 3*10e-9 mol/L; type: functional
Felis catus [25] = test: Effect on cardiac frequency in Anesthetized cats at a dose of 2.25 mg/kg at 15 min; type: functional, Heart
Felis catus [26] = test: Effect of intraperitoneal infusion on systolic pressure in Anesthetized cats at a dose of 200 mg/kg at 180 min; type: functional
Cavia porcellus [27] = species: Cavia porcellus; test: Chronotropic activity on left and right guinea pig artia (beats/min), at 180 min; type: functional
Felis catus [28] = test: Effect of intraperitoneal infusion on systolic pressure in Anesthetized cats at a dose of 200 mg/kg at 75 min; type: functional
Felis catus [29] = test: Effect of intraperitoneal infusion of compound on cardiac frequency in Anesthetized cats at a dose of 200 mg/kg at 135 min; type: functional, Heart
Felis catus [30] = test: Effect of intravenous infusion on cardiac frequency in Anesthetized cats at a dose of 3 mg/kg at 20 min; type: functional, Heart
Felis catus [31] = test: Effect of intraperitoneal infusion on systolic pressure in Anesthetized cats at a dose of 200 mg/kg at 90 min; type: functional
Felis catus [32] = test: Effect of intraperitoneal infusion on respiration frequency in Anesthetized cats at a dose of 200 mg/kg at 0 min; type: functional
Felis catus [33] = test: Effect of intraperitoneal infusion of compound on cardiac frequency in Anesthetized cats at a dose of 200 mg/kg at 165 min; type: functional, Heart
Felis catus [34] = test: Effect of intraperitoneal infusion on diastolic pressure in Anesthetized cats at a dose of 200 mg/kg at 120 min; type: functional
Felis catus [35] = test: Effect of intravenous infusion of compound on diastolic pressure in Anesthetized cats at a dose of 3 mg/kg at 20 min; type: functional
Oryctolagus cuniculus [36] = species: Oryctolagus cuniculus; test: Effect on 35 mM K+-induced contraction on rabbit aorta at a dose of 10E-6 mol/L; type: functional
Felis catus [37] = test: Effect of intraperitoneal infusion on respiration frequency in Anesthetized cats at a dose of 200 mg/kg at 120 min; type: functional
Felis catus [38] = test: Effect of intraperitoneal infusion on systolic pressure in Anesthetized cats at a dose of 200 mg/kg at 135 min; type: functional
Felis catus [39] = test: Effect of intraperitoneal infusion on respiration frequency in Anesthetized cats at a dose of 200 mg/kg at 75 min; type: functional
Felis catus [40] = test: Effect of intraperitoneal infusion on diastolic pressure in Anesthetized cats at a dose of 200 mg/kg at 90 min; type: functional
Felis catus [41] = test: Effect of intraperitoneal infusion of compound on cardiac frequency in Anesthetized cats at a dose of 200 mg/kg at 75 min; type: functional, Heart
Felis catus [42] = test: Effect of intraperitoneal infusion on systolic pressure in Anesthetized cats at a dose of 200 mg/kg at 15 min; type: functional
Felis catus [43] = test: Effect of intraperitoneal infusion on diastolic pressure in Anesthetized cats at a dose of 200 mg/kg at 150 min; type: functional
Cavia porcellus [44] = species: Cavia porcellus; test: Effect on guinea pig artia (beats/min), at the a dose of 0 M; type: functional
Cavia porcellus [45] = species: Cavia porcellus; test: Chronotropic activity on left and right guinea pig artia (beats/min), at 15 min; type: functional
Felis catus [46] = test: Effect of intraperitoneal infusion of compound on cardiac frequency in Anesthetized cats at a dose of 200 mg/kg at 60 min; type: functional, Heart
Felis catus [47] = test: Effect of intraperitoneal infusion on respiration frequency in Anesthetized cats at a dose of 200 mg/kg at 30 min; type: functional
Oryctolagus cuniculus [48] = species: Oryctolagus cuniculus; test: Effect on 35 mM K+-induced contraction on rabbit aorta at a dose of 10E-8 mol/L; type: functional

SMILES: CCO/C(O)=C1\C(C)=NC(C)=C(C(=O)OCCN2C(=O)c3ccccc3S2(=O)=O)C1C (stereo unspecified)
- Arterial pressure (Felis catus [1]): 130 mmHg
- Arterial pressure (Felis catus [2]): 140 mmHg
- Respiratory frequency (Felis catus [3]): 13 r.p.m.
- Respiratory frequency (Felis catus [4]): 19 r.p.m.
- Inhibition (Oryctolagus cuniculus [5]): 71.3%
- Inhibition (Oryctolagus cuniculus [6]): 23.89%
- Arterial pressure (Felis catus [7]): 115 mmHg
- Arterial pressure (Felis catus [8]): 85 mmHg
- Beats/min (Cavia porcellus [9]): 133
- Control (Cavia porcellus [9]): 97.1%
- Respiratory frequency (Felis catus [10]): 15 r.p.m.
- Arterial pressure (Felis catus [11]): 162 mmHg
- Cardiac frequency (Felis catus [12]): 261 beats min-1
- Cardiac frequency (Felis catus [13]): 195 beats min-1
- Respiratory frequency (Felis catus [14]): 12 r.p.m.
- Beats/min (Cavia porcellus [15]): 181
- Control (Cavia porcellus [15]): 98.5%
- Beats/min (Cavia porcellus [16]): 134
- Control (Cavia porcellus [16]): 97.8%
- Arterial pressure (Felis catus [17]): 90 mmHg
- Arterial pressure (Felis catus [18]): 110 mmHg
- Beats/min (Cavia porcellus [19]): 138
- Control (Cavia porcellus [19]): 100.7%
- Cardiac frequency (Felis catus [20]): 265 beats min-1
- Beats/min (Cavia porcellus [21]): 131
- Control (Cavia porcellus [21]): 95.6%
- Arterial pressure (Felis catus [22]): 90 mmHg
- Arterial pressure (Felis catus [23]): 165 mmHg
- Inhibition (Oryctolagus cuniculus [24]): 0%
- Cardiac frequency (Felis catus [25]): 217 beats min-1
- Arterial pressure (Felis catus [26]): 145 mmHg
- Beats/min (Cavia porcellus [27]): 130
- Control (Cavia porcellus [27]): 94.9%
- Arterial pressure (Felis catus [28]): 137 mmHg
- Cardiac frequency (Felis catus [29]): 271 beats min-1
- Cardiac frequency (Felis catus [30]): 216 beats min-1
- Arterial pressure (Felis catus [31]): 138 mmHg
- Respiratory frequency (Felis catus [32]): 14 r.p.m.
- Cardiac frequency (Felis catus [33]): 278 beats min-1
- Arterial pressure (Felis catus [34]): 85 mmHg
- Arterial pressure (Felis catus [35]): 110 mmHg
- Inhibition (Oryctolagus cuniculus [36]): 48.13%
- Respiratory frequency (Felis catus [37]): 13 r.p.m.
- Arterial pressure (Felis catus [38]): 140 mmHg
- Respiratory frequency (Felis catus [39]): 12 r.p.m.
- Arterial pressure (Felis catus [40]): 85 mmHg
- Cardiac frequency (Felis catus [41]): 255 beats min-1
- Arterial pressure (Felis catus [42]): 130 mmHg
- Arterial pressure (Felis catus [43]): 80 mmHg
- Beats/min (Cavia porcellus [44]): 183
- Control (Cavia porcellus [44]): 100%
- Beats/min (Cavia porcellus [45]): 138
- Control (Cavia porcellus [45]): 100.7%
- Cardiac frequency (Felis catus [46]): 256 beats min-1
- Respiratory frequency (Felis catus [47]): 13 r.p.m.
- Inhibition (Oryctolagus cuniculus [48]): 0%
